For twelve compounds, IC50 results are on record in patent US20240158393A1, “PYRIDONE COMPOUNDS AND METHODS OF USE” (Exelixis, Inc., priority 2021, published 2024).

Counter-ions that a name gives are not always drawn. Where only a bound is given, the exact number is not on record here.

The target in one experiment is T1, Human Axl (Homo sapiens, UniProt P30530).
T1 construct: Human AXL (residues 464-885)
T1 sequence (P30530 1-894 Q764R): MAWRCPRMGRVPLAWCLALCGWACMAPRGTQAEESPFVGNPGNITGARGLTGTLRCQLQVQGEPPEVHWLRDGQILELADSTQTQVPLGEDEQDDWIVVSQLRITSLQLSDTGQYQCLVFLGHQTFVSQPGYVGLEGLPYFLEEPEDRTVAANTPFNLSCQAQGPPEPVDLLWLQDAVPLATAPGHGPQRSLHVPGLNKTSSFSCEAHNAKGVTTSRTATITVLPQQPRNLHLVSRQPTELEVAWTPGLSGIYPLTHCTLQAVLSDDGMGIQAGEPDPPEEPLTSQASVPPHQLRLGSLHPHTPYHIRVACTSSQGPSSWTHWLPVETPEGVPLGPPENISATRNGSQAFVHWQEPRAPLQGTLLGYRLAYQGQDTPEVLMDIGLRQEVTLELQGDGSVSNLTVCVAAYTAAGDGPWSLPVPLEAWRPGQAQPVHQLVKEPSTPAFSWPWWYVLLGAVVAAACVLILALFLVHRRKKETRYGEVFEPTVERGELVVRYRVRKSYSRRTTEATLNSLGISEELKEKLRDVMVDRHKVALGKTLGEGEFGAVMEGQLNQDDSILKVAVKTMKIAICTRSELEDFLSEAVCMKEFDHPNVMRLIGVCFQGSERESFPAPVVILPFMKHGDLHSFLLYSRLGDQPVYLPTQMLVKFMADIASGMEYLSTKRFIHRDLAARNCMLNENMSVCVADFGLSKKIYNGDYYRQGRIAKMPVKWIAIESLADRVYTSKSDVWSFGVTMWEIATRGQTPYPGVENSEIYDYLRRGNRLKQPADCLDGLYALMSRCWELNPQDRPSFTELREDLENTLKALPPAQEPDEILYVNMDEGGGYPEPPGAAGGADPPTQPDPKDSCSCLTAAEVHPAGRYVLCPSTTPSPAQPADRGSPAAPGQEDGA
The experiment can be described thus: Human AXL kinase assay (33P radiometric / HTRF KinEase). The format is biochemical. The conditions noted are these: protocols of Examples A-1 and/or A-2.

In a further experiment the target is T2, Human Met (Homo sapiens, UniProt P08581).
T2 construct: Human MET (residues 956-1390)
T2 sequence (P08581 974-1390 limits assumed): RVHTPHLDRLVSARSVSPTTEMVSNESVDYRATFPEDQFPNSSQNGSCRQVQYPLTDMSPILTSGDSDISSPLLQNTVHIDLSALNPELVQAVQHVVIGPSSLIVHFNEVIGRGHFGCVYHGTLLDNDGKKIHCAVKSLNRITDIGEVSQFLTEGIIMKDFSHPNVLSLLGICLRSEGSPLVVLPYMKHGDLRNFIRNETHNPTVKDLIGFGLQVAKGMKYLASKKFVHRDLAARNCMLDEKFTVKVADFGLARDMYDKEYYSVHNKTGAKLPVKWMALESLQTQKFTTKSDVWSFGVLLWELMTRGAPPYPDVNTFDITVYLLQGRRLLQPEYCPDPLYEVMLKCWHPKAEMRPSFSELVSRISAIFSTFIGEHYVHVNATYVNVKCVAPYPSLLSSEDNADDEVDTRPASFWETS
Kind of experiment: Human Met kinase assay (33P radiometric / HTRF KinEase). Format: biochemical. The conditions noted are these: protocols of Examples D-1 and/or D-2; read-out: c-Met IC50. The essentials:
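Two formats gave IC50s by curve fitting. HTRF KinEase used MET residues 956-1390 with 1 μM biotin-peptide and 3.0 μM ATP (Km) for 40 min at room temperature, ten doses in 3% DMSO, 665/620 nm read. The 33P transfer assay used mutant Met R974-S1390 A1209G/V1290L (3.4 nM), 10 μM ATP, 250 μM peptide, pH 7.0, 40 min, nine doses from 1 μM.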

With `C=C(C)c1c(C)n(C)c(C)c(C(=O)Nc2ccc(Oc3ccnc4cc(OC)c(OC)nc34)c(F)c2)c1=O` [Compound 52, N-[4-[(6,7-Dimethoxy-1,5-naphthyridin-4-yl)oxy]-3-fluorophenyl]-1,2,6-trimethyl-4-oxo-5-prop-1-en-2-ylpyridine-3-carboxamide], the half-maximal inhibitory concentration (IC50) is at most 100 nM at Human Axl and over 300 nM on Human Met.

On to `COc1cc2nccc(Oc3ccc(NC(=O)c4c(C)n(C)c(C)c(C5=CCOCC5)c4=O)cc3F)c2nc1OC` [Compound 53, 5-(3,6-Dihydro-2H-pyran-4-yl)-N-[4-[(6,7-dimethoxy-1,5-naphthyridin-4-yl)oxy]-3-fluorophenyl]-1,2,6-trimethyl-4-oxopyridine-3-carboxamide], for which the IC50 against Human Axl and at Human Met was at most 100 nM throughout.

With `COCCOc1cc2nccc(Oc3ccc(NC(=O)c4c(C)n(C)c(C)c(/C=C/C5CCCC5)c4=O)cc3F)c2nc1OC` [Compound 54, 5-[(E)-2-Cyclopentylethenyl]-N-[3-fluoro-4-[[6-methoxy-7-(2-methoxyethoxy)-1,5-naphthyridin-4-yl]oxy]phenyl]-1,2,6-trimethyl-4-oxopyridine-3-carboxamide], the IC50 against Human Axl is at most 100 nM; on Human Met, 100 to 300 nM.

With `C=C(C)c1c(C)n(C)c(C)c(C(=O)Nc2ccc(Oc3ccnc4cc(OC)c(OC)nc34)cc2)c1=O` [Compound 55, N-[4-[(6,7-Dimethoxy-1,5-naphthyridin-4-yl)oxy]phenyl]-1,2,6-trimethyl-4-oxo-5-prop-1-en-2-ylpyridine-3-carboxamide], the IC50 on Human Axl is at most 100 nM; at Human Met, over 300 nM.

With `COCCOc1cc2nccc(Oc3ccc(NC(=O)c4c(C)n(C)c(C)c(C5=CCCCC5)c4=O)cc3F)c2nc1OC` [Compound 58, 5-(Cyclohexen-1-yl)-N-[3-fluoro-4-[[6-methoxy-7-(2-methoxyethoxy)-1,5-naphthyridin-4-yl]oxy]phenyl]-1,2,6-trimethyl-4-oxopyridine-3-carboxamide], the IC50 against Human Axl and on Human Met was at most 100 nM throughout.

For `COCCOc1cnc2c(Oc3ccc(NC(=O)c4c(C)n(C)c(C)c(C5=CCCC5)c4=O)cc3F)ccnc2c1` [Compound 65, 5-(Cyclopenten-1-yl)-N-[3-fluoro-4-[[7-(2-methoxyethoxy)-1,5-naphthyridin-4-yl]oxy]phenyl]-1,2,6-trimethyl-4-oxopyridine-3-carboxamide], the IC50 at Human Axl and at Human Met was at most 100 nM each time.

Regarding `COCCOc1cnc2c(Oc3ccc(NC(=O)c4c(C)n(C)c(C)c(C5=CCCCC5)c4=O)cc3F)ccnc2c1` [Compound 66, 5-(Cyclohexen-1-yl)-N-[3-fluoro-4-[[7-(2-methoxyethoxy)-1,5-naphthyridin-4-yl]oxy]phenyl]-1,2,6-trimethyl-4-oxopyridine-3-carboxamide], the IC50 against Human Axl and at Human Met was at most 100 nM throughout.

For `COc1cc2nccc(Oc3ccc(NC(=O)c4c5n(c(C)c(C6=CCOCC6)c4=O)CCOC5)cc3)c2nc1OC` [Compound 73, 7-(3,6-Dihydro-2H-pyran-4-yl)-N-[4-[(6,7-dimethoxy-1,5-naphthyridin-4-yl)oxy]phenyl]-6-methyl-8-oxo-3,4-dihydro-1H-pyrido[2,1-c][1,4]oxazine-9-carboxamide], the IC50 on Human Axl and at Human Met was at most 100 nM throughout.

As for `COc1nc2c(Oc3ccc(NC(=O)c4c(C)n(C)c(C)c(C5=CCCC5)c4=O)cc3F)ccnc2cc1OCCC1CCC1` [Compound 74, N-[4-[[7-(2-Cyclobutylethoxy)-6-methoxy-1,5-naphthyridin-4-yl]oxy]-3-fluorophenyl]-5-(cyclopenten-1-yl)-1,2,6-trimethyl-4-oxopyridine-3-carboxamide], the IC50 on Human Axl and at Human Met was at most 100 nM throughout.

Regarding `COc1cc2nccc(Oc3ccc(NC(=O)c4cnc(C)c(C5=CCCC5)c4O)cc3F)c2nc1OC` [Compound G1-2, 5-(Cyclopenten-1-yl)-N-[4-[(6,7-dimethoxy-1,5-naphthyridin-4-yl)oxy]-3-fluorophenyl]-4-hydroxy-6-methylpyridine-3-carboxamide hydrochloride], the IC50 on Human Axl and on Human Met was at most 100 nM throughout.

As to `COc1cc2nccc(Oc3ccc(NC(=O)c4cnc(C)c(C5=CCCCC5)c4O)cc3F)c2nc1OC` [Compound G1-3, 5-(Cyclohexen-1-yl)-N-[4-[(6,7-dimethoxy-1,5-naphthyridin-4-yl)oxy]-3-fluorophenyl]-4-hydroxy-6-methylpyridine-3-carboxamide], the IC50 against Human Axl and on Human Met was at most 100 nM throughout.

For `COc1cc2nccc(Oc3ccc(NC(=O)c4c5n(cc(C6=CCCCC6)c4=O)CCOC5)cc3F)c2nc1OC` [Compound G1-4, 7-(Cyclohexen-1-yl)-N-[4-[(6,7-dimethoxy-1,5-naphthyridin-4-yl)oxy]-3-fluorophenyl]-8-oxo-3,4-dihydro-1H-pyrido[2,1-c][1,4]oxazine-9-carboxamide], the IC50 against Human Axl and at Human Met was at most 100 nM each time.
